According to paper PMC9686139, “Furanoditerpenes from Spongia (Spongia) tubulifera Display Mitochondrial-Mediated Neuroprotective Effects by Targeting Cyclophilin D” (ACS Chemical Neuroscience, 2022):

How the values were obtained:
Human CypA = Human CypA (Homo sapiens, UniProt P62937); assay: Surface plasmon resonance binding to immobilized CypA; conditions: for Kd: CypA, SPR, 1:1 Langmuir model, PBS-T pH 7.2, 24 °C; for kon: read-out: ka, CypA
Experimental: The protein was immobilized on the sensor surface by amino coupling, as described above (Figure S7), and compounds at several concentrations were added. The same conditions set for CypD were used for CypA experiments, with a flow rate of 20 μL/min and PBS-T (pH 7.2) as the running buffer.
Figure 9 Binding of compounds to CypA measured by surface plasmon resonance. The left panels present association curves obtained by the addition of compounds over immobilized CypA and subtraction of their respective vehicle signal. The right panels show fitting curves for equilibrium binding. Representative graphs of one independent replicate. […] Kinetic equilibrium dissociation constants (KD) and fitting curves were obtained with TraceDrawer software.
(§2) SPR measurements were performed using the MP-SPR Navi 210A VASA instrument with SPR Navi Control software (BioNavis, Tampere, Finland). All of the analyses were carried out in three-dimensional (3D) carboxymethyl dextran hydrogel-coated (CMD-3DM) sensors (BioNavis). PBS, 0.05% Tween (pH 7.2) was used as the running buffer for sensor activation, protein immobilization, and analyte injection. All buffers were degassed and filtered by 0.22 μm before use. The flow rate and temperature were set at 20 μL/min and 24 °C, respectively. A commercial Amine Coupling Kit (Xantec bioanalytics GmbH, Düsseldorf, Germany) was used for sensor activation and Cyps immobilization. The chip surface was preconditioned with 2 M NaCl and 0.01 M NaOH. Then, the surface was activated by the addition of 0.2 M 1-ethyl-3-(3-dimethylaminopropyl)carbodiimide hydrochloride (EDC) and 0.05 M N-hydroxysuccinimide (NHS). After activation, 50 μg/mL of CypA or CypD dissolved in 5 mM sodium acetate buffer (pH 4.5) were injected for immobilization on the sensor surface. […] Compound injections were performed in serial mode, and the reference channel signal was subtracted from the analyte sensorgram. Data were processed with MP-SPR Navi Data Viewer (BioNavis), and KD values were obtained using the 1:1 Langmuir model with mass transport considerations of TraceDrawer software (RidgeView Instruments Ab, Uppsala, Sweden). All of the experiments were performed three independent times.

CypD = CypD expression by Western blot; conditions: compound 0.001 μM + 150 μM H2O2, 6 h; % of H2O2 control cells
Description: (b) CypD expression after treatment with S. tubulifera metabolites. (c) Effect of compounds on the CypD expression under oxidative stress conditions. […] Protein band expression was normalized by actin levels. Results are mean ± SEM of three replicates carried out in duplicate. Data expressed as the percentage of untreated control cells and H2O2 control. Values compared by one-way ANOVA and Dunnett’s tests. ^#p < 0.05 and ^##p < 0.01 compared to control cells. *p < 0.05 and **p < 0.01 compared to cells treated with H2O2 alone.
In this context, the expression of this protein was analyzed after treatment with compounds. CypD cytosolic levels were evaluated after treatment with 1–5 alone for 6 h and after the coaddition of diterpenes and H2O2 to get a complete insight into diterpene mitochondria-related effects.
SH-SY5Y cells were cultured in 12-well plates at 1 × 10^6 cells per well and allowed to settle down for 24 h.
Cells were washed twice with ice-cold PBS, and a hypotonic solution was added (20 mM tris–HCl pH 7.4, 10 mM NaCl, and 3 mM MgCl2, containing phosphatase and protease inhibitor cocktail). Cells were incubated for 15 min on ice and centrifuged at 3000 rpm and 4 °C for 15 min. The supernatant was collected as the cytosolic fraction, and protein concentration was quantified with the Direct Detect instrument (Merck Millipore, Darmstadt, Germany).[15]
Electrophoresis was resolved in 4–20% sodium dodecyl sulfate polyacrylamide gels (Biorad, Hercules, CA), containing 15 μg of cytosolic protein from each sample. The Trans-Blot semidry transfer cell (Biorad) was used to transfer proteins to poly(vinylidene difluoride) (PVDF) membranes (Merck Millipore). Snap i.d. system (Merck Millipore) was used for membrane blocking and antibody incubation. […] Immunoreactive bands were detected with Supersignal West Pico Luminiscent Substrate and Supersignal West Femto Maximum Sensitivity Substrate. Diversity GeneSnap system and software (Syngene, Cambridge, U.K.) were used for protein band detection. Experiments were performed three independent times in duplicate.

SH-SY5Y cells [1] = assay: GSH content, Thiol Tracker Violet; format: cell-based, human
Experimental: To confirm the antioxidant properties of S. tubulifera compounds, the levels of the most important nonenzymatic antioxidant of cells, glutathione (GSH), were assessed. […] Regarding diterpene 2, an increase in the nonenzymatic antioxidant was observed when cells were cotreated with H2O2 and this compound at 0.001 and 1 μM (p < 0.05) (Figure 5b). No effects were found after the addition of 3 (Figure 5c), but 4 and 5 presented interesting results (Figure 5d,e).
Figure 5 Effect of S. tubulifera metabolites in the GSH content of human neuroblastoma cells. SH-SY5Y cells were treated with compounds for 6 h with and without 150 μM H2O2. GSH levels were monitored with Thiol Tracker Violet dye. (a) Compound 1, (b) compound 2, (c) compound 3, (d) compound 4, and (e) compound 5 results. Vitamin E (Vit E) at 25 μM was used as a positive control. Mean ± SEM of three experiments performed in triplicate. Data presented as the percentage of untreated control cells and compared by one-way ANOVA and Dunnett’s tests. ^##p < 0.01 compared to control cells. *p < 0.05 compared to cells treated with H2O2 alone.
(§1) For these experiments, cells were seeded in 384-well plates and treated as described above. All of the assays were carried out as previously described.[15]
Thiol Tracker Violet was used to measure intracellular GSH levels, following the manufacturer’s instructions. Briefly, human neuroblastoma cells were rinsed twice with PBS and the fluorescence dye at 10 μM was added. The plate was incubated for 30 min at 37 °C and 300 rpm, and the fluorescence was measured at 404 nm excitation and 526 nm emission in a plate reader. All experiments were performed three independent times in triplicate.

SH-SY5Y cells [2] = assay: Cell viability in H2O2 oxidative stress model, MTT assay; format: cell-based, human; conditions: 150 μM H2O2, 6 h; 0.001-1 μM
Experimental: First, the capacity of 1–5 to improve cell survival under oxidative stress conditions was determined with the MTT assay (Figure 2). […] When cells were injured with the oxidant specie, a decrease in the cell viability of 23.6 ± 3.5% (p < 0.05) was observed.
Figure 2 Effect of compounds on the cell viability of SH-SY5Y cells. Compounds were added to human neuroblastoma cells for 6 h with and without 150 μM H2O2, and cell viability was evaluated with the MTT assay. Results of (a) compound 1, (b) compound 2, (c) compound 3, (d) compound 4, and (e) compound 5. Vitamin E (Vit E) at 25 μM was used as a positive control in oxidative stress assays. Mean ± standard error of the mean (SEM) of three experiments performed in triplicate. Data expressed as the percentage of control cells, compared by one-way analysis of variance (ANOVA) and Dunnett’s tests. ^#p < 0.05 compared to untreated control cells. *p < 0.05 and **p < 0.01 compared to cells treated with H2O2 alone. […]
The ability of compounds to protect cell viability from H2O2 was evaluated with 3-(4,5-dimethylthiazol-2-yl)-2,5-diphenyltetrazolium bromide (MTT) test. […] The absorbance of formazan crystals was measured at 595 nm with a plate reader. Saponin at 40 mg/mL was used as the death control, and its absorbance value was subtracted from the other data.

SH-SY5Y cells [3] = assay: ROS intracellular levels, carboxy-H2DCFDA; format: cell-based, human; conditions: for effect on ROS content: cotreatment with 150 μM H2O2, 6 h
Experimental: Next, the capacity of S. tubulifera metabolites to decrease ROS intracellular levels was evaluated (Figure 4). […] Regarding the oxidative stress model, H2O2 augmented the levels of oxidant molecules up to 125.1 ± 2.4% (p < 0.01) and the known antioxidant Vit E, used as a positive control, induced a reduction in ROS release of 24% with respect to cells treated only with H2O2 (p < 0.05).
Figure 4 ROS intracellular levels after treatment with compounds. Furanoditerpenes were added for 6 h in the absence and presence of 150 μM H2O2. Then, the ROS content was measured with the fluorescent dye 5-(and-6)-carboxy-2′,7′-dichlorodihydrofluorescein diacetate (carboxy-H2DCFDA). Results from (a) 1, (b) 2, (c) 3, (d) 4, and (e) 5. Vitamin E (Vit E) at 25 μM was used as a positive control. Data expressed as the percentage of untreated control cells. Mean ± SEM of three experiments performed in triplicate. Statistical differences determined by one-way ANOVA test followed by Dunnett’s post hoc test. ^##p < 0.01 compared to control cells. *p < 0.05, **p < 0.01, and ***p < 0.01 compared to H2O2 control.
as §1
The fluorescent dye 5-(and-6)-carboxy-2′,7′-dichlorodihydrofluorescein diacetate (carboxy-H2DCFDA) was used to evaluate ROS levels. After treatment with compounds and H2O2, cells were washed twice with serum-free medium. Next, cells were loaded with 20 μM carboxy-H2DCFDA dissolved in serum-free medium, and the plate was incubated for 1 h at 37 °C and 300 rpm. Then, 100 μL of PBS were added to each well for 30 min at 37 °C and 300 rpm. After this incubation, the fluorescence was read at […].

SH-SY5Y cells [4] = assay: Mitochondrial membrane potential (ΔΨm), TMRM dye; format: cell-based, human; conditions: 150 μM H2O2, 6 h; compound 0.001 μM; percentage of control cells
Experimental: Since mitochondria are key players in neurodegeneration, acting as main producers and targets of ROS,[16] mitochondrial function was determined by analyzing the mitochondrial membrane potential (ΔΨm) with the fluorescent dye tetramethylrhodamine methyl ester (TMRM).
Figure 3 Effect of furanoditerpenes on ΔΨm of human neuroblastoma cells. Cells were treated for 6 h with S. tubulifera metabolites with and without 150 μM H2O2, and ΔΨm was determined with the TMRM dye. (a) Compound 1, (b) compound 2, (c) compound 3, (d) compound 4, and (e) compound 5 effects. Vitamin E (Vit E) at 25 μM was used as a positive control in oxidative stress assays. Data expressed as the percentage of control cells. Mean ± SEM of three experiments performed in triplicate. Statistical differences determined by one-way ANOVA and Dunnett’s tests. ^#p < 0.05 compared to untreated control cells. *p < 0.05, **p < 0.01, and ***p < 0.01 compared to cells treated with H2O2 alone.
To determine the neuroprotective effects of compounds, SH-SY5Y cells were seeded in 384-well plates at a density of 2.5 × 10^4 cells per well. After 24 h, cells were treated with the metabolites at nontoxic concentrations (0.001–1 μM) and 150 μM H2O2 for 6 h. […]
The effects of compounds in ΔΨm were analyzed with the fluorescent dye TMRM. […] The fluorescence was read in a plate reader at 535 nm excitation and 590 nm emission. […]

CypA = CypA expression by Western blot; conditions: 0.001 μM, 6 h; physiological and oxidative stress (150 μM H2O2) conditions
Experimental: (§3) Human neuroblastoma cells were treated with compounds at 0.001 μM for 6 h, and Cyps expression was determined by Western blot (Figure 10). […] SH-SY5Y cells were treated with 1–5 at 0.001 μM for 6 h, and their effects on Cyps expression were determined by Western blot. […] Protein band expression was normalized by actin levels. Results expressed as the percentage of untreated control cells or as the percentage of H2O2 control. Mean ± SEM of three replicates carried out in duplicate. Statistical differences determined by one-way ANOVA and Dunnett’s tests. ^#p < 0.05 and ^##p < 0.01 compared to control cells. *p < 0.05, **p < 0.01, and ***p < 0.01 compared to cells treated with H2O2 alone. […]
(§4) Cells were washed twice with ice-cold PBS, and a hypotonic solution was added (20 mM tris–HCl pH 7.4, 10 mM NaCl, and 3 mM MgCl2, containing phosphatase and protease inhibitor cocktail). […] The supernatant was collected as the cytosolic fraction, and protein concentration was quantified with the Direct Detect instrument (Merck Millipore, Darmstadt, Germany).[15]
(§5) Electrophoresis was resolved in 4–20% sodium dodecyl sulfate polyacrylamide gels (Biorad, Hercules, CA), containing 15 μg of cytosolic protein from each sample. […] Immunoreactive bands were detected with Supersignal West Pico Luminiscent Substrate and Supersignal West Femto Maximum Sensitivity Substrate. […]

human cancer cell lines = system: human cancer cell lines; design: method as in PMID 31315183; conditions: previous studies; cited from earlier work
human CypD = human CypD (Homo sapiens, UniProt P30405); assay: Surface plasmon resonance binding to immobilized CypD; conditions: for selectivity between CypD and CypA (KD values): CypD versus CypA; for kon: read-out: ka, CypD
Experimental: With this objective, surface plasmon resonance (SPR) experiments were performed. CypD was immobilized in the sensor surface as a ligand, and 1–5 were injected as analytes. […] For immobilization, amine groups were activated with 1-ethyl-3-(3-dimethylaminopropyl)carbodiimide hydrochloride (EDC) and N-hydroxysuccinimide (NHS) and 50 μg/mL of human CypD dissolved in 5 mM sodium acetate (pH 4.5) was added. […] All of the assays were carried out with phosphate-buffered saline (PBS)—0.05% Tween (pH 7.2) as the running buffer, with a flow rate of 20 μL/min at 24 °C.
The left panels present association curves obtained by the addition of compounds over immobilized CypD and subtraction of their respective solvent control. The right panels show fitting curves for equilibrium binding. Representative graphs of one independent replicate. […] All injections were performed using PBS, 0.05% Tween (pH 7.2) as the running buffer. Kinetic equilibrium dissociation constants (KD) and fitting curves were obtained with TraceDrawer software.
as §2

CypB = conditions: compound alone 0.001 μM, 6 h; % of untreated control cells
Experimental: Before starting the experiments, antibody specificity was determined due to the conserved structures along Cyps. […] Human neuroblastoma cells were treated with compounds at 0.001 μM for 6 h, and Cyps expression was determined by Western blot (Figure 10).
SH-SY5Y cells were treated with 1–5 at 0.001 μM for 6 h, and their effects on Cyps expression were determined by Western blot. […] Protein band expression was normalized by actin levels. Results expressed as the percentage of untreated control cells or as the percentage of H2O2 control. Mean ± SEM of three replicates carried out in duplicate. Statistical differences determined by one-way ANOVA and Dunnett’s tests. ^#p < 0.05 and ^##p < 0.01 compared to control cells. *p < 0.05, **p < 0.01, and ***p < 0.01 compared to cells treated with H2O2 alone.
SH-SY5Y cells were cultured in 12-well plates at 1 × 10^6 cells per well and allowed to settle down for 24 h. Then, cells were treated with compounds at 0.001 μM for 6 h and oxidative damage was induced with 150 μM H2O2.
Cells were washed twice with ice-cold PBS, and a hypotonic solution was added (20 mM tris–HCl pH 7.4, 10 mM NaCl, and 3 mM MgCl2, containing phosphatase and protease inhibitor cocktail). […] The supernatant was collected as the cytosolic fraction, and protein concentration was quantified with the Direct Detect instrument (Merck Millipore, Darmstadt, Germany).[15] […]

[5] = design: method as in doi:10.1246/cl.1987.1687; conditions: previous studies; cited from earlier work
[6] = system: mitochondrial permeability transition pore (mPTP); assay: mPTP opening, calcein-AM/CoCl2 flow cytometry; conditions: 0.001 μM, 15 min pretreatment, TBHP 3 min
Experimental: SH-SY5Y cells were treated for 15 min with 1–5, and 1 mM tert-butyl hydroperoxide (TBHP) was used to open the pore. Cells were loaded with calcein-AM, which accumulates in cytosol and cell compartments and with CoCl2 that quenches cytosolic fluorescence but not the mitochondrial signal.[17] Then, fluorescence was analyzed by flow cytometry (Figure 6a). […] (a) Analysis of mPTP opening. Cells were treated with compounds at 0.001 μM for 15 min, and pore opening was induced with 1 mM TBHP. Calcein-AM and CoCl2 were used to measure mPTP aperture by flow cytometry. […] Values are presented as the percentage of control cells. Data are mean ± SEM of three independent experiments. Statistical differences determined by one-way ANOVA and Dunnett’s tests. ^###p < 0.001 compared to control cells. *p < 0.05 and **p < 0.01 compared to cells treated only with TBHP.
The inhibition of mPTP by compounds was determined with the MitoProbe Transition Pore Assay Kit, as previously described.[21] For this assay, cells were seeded in 12-well plates at 5 × 10^5 cells per well and allowed to grow for 24 h. Then, SH-SY5Y cells were detached with Detachin solution (Genlatis, San Diego), washed with PBS, and resuspended in PBS buffer with 0.6 mM CaCl2. Cells were loaded with 0.01 μM calcein-AM and incubated at 37 °C for 15 min. Then, 0.4 mM CoCl2 and compounds at 0.001 μM were added and cells were incubated for 15 min at 37 °C. After this incubation, cells were centrifuged, resuspended in 100 μL of calcium-free PBS, and kept on ice. Finally, TBHP at 1 mM was added for 3 min to the cells to induce the pore opening. […] The fluorescence of 10 000 events was analyzed with IDEAS Application vs 6.0 (Amnis Corporation, Luminex Corp).

CypC = CypC expression by Western blot; conditions: 0.001 μM + 150 μM H2O2, 6 h; % of H2O2 control
Experimental: as §3, §4, §5

Sequence of human CypD (P30405 30-207): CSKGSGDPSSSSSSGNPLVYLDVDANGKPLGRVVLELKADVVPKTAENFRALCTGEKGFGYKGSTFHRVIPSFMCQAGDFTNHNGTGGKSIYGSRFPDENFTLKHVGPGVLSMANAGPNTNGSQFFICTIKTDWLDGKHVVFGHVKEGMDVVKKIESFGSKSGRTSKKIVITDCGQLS
Sequence of Human CypA (P62937 whole entry): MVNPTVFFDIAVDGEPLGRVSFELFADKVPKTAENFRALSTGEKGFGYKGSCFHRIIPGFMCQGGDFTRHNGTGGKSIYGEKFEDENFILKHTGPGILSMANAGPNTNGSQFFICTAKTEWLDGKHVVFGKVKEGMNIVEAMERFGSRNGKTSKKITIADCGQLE

| SMILES | Kd (Human CypA) | kon (Human CypA) | CypD expression under oxidative damage (CypD) | cytotoxicity (human cancer cell lines) | selectivity between CypD and CypA (KD values) (human CypD; SPR) | Kd (human CypD) | kon (human CypD) | further results |
| --- | --- | --- | --- | --- | --- | --- | --- | --- |
| CC1(C)[C@@H](O)C(=O)C[C@]2(C)[C@H]3CCc4cocc4[C@]3(C)CC[C@@H]12 [Compound 1] | 15.2 ± 1.31 µM | 682 M⁻¹ s⁻¹ | about 54% | weak cytotoxicity | selective toward CypA | – | – | SPR signal, CypA (Human CypA; at 50 μM): 9.9 mdeg; effect on GSH content (SH-SY5Y cells [1]; compound alone and with 150 μM H2O2, 6 h): did not affected the GSH content; protection of cell viability from H2O2 damage (SH-SY5Y cells [2]): not able to protect; effect on ROS content (SH-SY5Y cells [3]; all four concentrations 0.001-1 μM): significant decrease; ΔΨm (SH-SY5Y cells [4]): 96.7 ± 5.4%; effect on CypA expression (CypA): decreased its expression; KD (kinetic equilibrium dissociation constant), CypD (human CypD; SPR, 1:1 Langmuir model, PBS-0.05% Tween pH 7.2, 24 °C): No binding; ka, CypD (human CypD; SPR, Table S1): No binding; kd, CypD (human CypD; SPR, Table S1): No binding; binding to CypD (human CypD; SPR, up to 50 μM): No binding |
| C[C@]12CC(=O)[C@H](O)[C@](C)(CO)[C@@H]1CC[C@@]1(C)c3cocc3CC[C@H]21 [Compound 4, epispongiadiol] | 27.4 ± 3.68 µM | 861 M⁻¹ s⁻¹ | about 54% | weak cytotoxicity | – | 30.4 ± 0.87 µM | 738 M⁻¹ s⁻¹ | CypB expression (CypB): 48.54 ± 11.4%; antiviral activity [5]: antiviral activity; inhibition of mPTP opening after oxidative injury [6]: able to inhibit mPTP opening |
| CC1(C)C(=O)C(O)=C[C@]2(C)[C@H]3CCc4cocc4[C@]3(C)CC[C@@H]12 [Compound 2] | 14.7 ± 1.08 µM | 1320 M⁻¹ s⁻¹ | 37.9 ± 17.9% | – | selectivity toward the mitochondrial isoform | 2.53 ± 0.006 µM | 10000 M⁻¹ s⁻¹ | effect on GSH content (SH-SY5Y cells [1]; cotreated with 150 μM H2O2, 6 h, at 0.001 and 1 μM): increase; ROS levels (SH-SY5Y cells [3]; 150 μM H2O2, 6 h, compound 0.1 μM, percentage of untreated control cells): 89.9 ± 5.7%; effect on ROS content (SH-SY5Y cells [3]; at 0.001, 0.1 and 1 μM): reduced the levels; CypC expression under oxidative injury (CypC): 24.3 ± 2.9% |
